Experimental data from US20070269793A1, “Bioactive Boxes for Cellular Cultures” (priority 2003, published 2007).

Key:
Type in all cases: cell-based, murine
B16 melanoma cells = assay: Calcium dependence of cell aggregation; settings: absence of Ca^++; 3 lines, after 1 and 3 hours
B16 F0 and B16 F10 lines = assay: Proliferation, cell count (Malassez hemocytometer); settings: B16 F0 and F10 on PS in the presence of MSH 10^−7 M (same in its absence)
Protocol: (§1) The cells are cultured in medium supplemented by 10% foetal calf serum, 1% L-Glutamine and 0.5% antibiotics (penicillin, streptomycin).
(§2) —b—proliferation: 10,000 cells are seeded per cm^2. The cells are counted (Malassez hemocytometer) after culture for 24 and 48 hours.
(§3) It should be noted that the B16 F0 and B16 F10 lines proliferate more on cellulose that the B16 C3 line, which is non-metastatic. The number of B16 F0 and F10 cells is multiplied by 3 on cellulose. It is multiplied by 6 on PS, in the presence or absence of MSH 10^−7 M melanin-stimulating hormone used as a second control.

B16 C3 line = assay: Proliferation, cell count (Malassez hemocytometer); settings: B16 C3 on PS in the presence of MSH (same in its absence), 48 hours
Protocol: as §1, §2, §3

Fn = Fn synthesis (indirect immunolabelling); settings: three melanoma lines cultured on PS with MSH

Substance	percentage of cells isolated (B16 melanoma cells)	number of cells multiplied by (B16 F0 and B16 F10 lines)	number of cells multiplied by (B16 C3 line)	Fn synthesis (Fn)
monencin	very significantly increased			
melanin-stimulating hormone [MSH]		6	2	increase in Fn synthesis
